Some test systems named below: SN12C; OVCAR-5; U-251; SNB-19; ACHN; UACC-257; SK-OV-3; SR; RPMI-8226; A498; CAKI-1; A549; CCRF-CEM; UO-31; SW-620; PC-3; IGROV-1; SNB-75; NCI-H226.
Common to all, as to assay: NCI anticancer screen, dose series, 48 h

Each structure is given as a SMILES string.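 Results reflect a 48-hour exposure of cells in 96-well plates to compound at five concentrations. The concentration for 50% growth inhibition is given as GI50.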 Activity calls are given as the source filed them. Cut-off read from the data, not from the text of the source: active = GI50 up to about 1.1 µM and inactive = higher.

On to `CCN(CC)CCNC(=O)c1cc2cc(NC(=O)c3cc4cc(N)ccc4[nH]3)ccc2[nH]1`, for which the GI50 was 39 µM (inactive) in the assay with SN12C; > 100 µM (inactive) in the assay with OVCAR-5; 25.6 µM (inactive) in the assay on U-251; 49.3 µM (inactive) with SNB-19; > 100 µM (inactive) in the assay on ACHN; 51.1 µM (inactive) in the assay on UACC-257. Moreover, the GI50 is 31.3 µM (inactive) with SK-OV-3; 5.9 µM (inactive) in the assay on SR; 19.3 µM (inactive) in the assay with RPMI-8226; > 100 µM (inactive) with A498; 86.5 µM (inactive) with CAKI-1; 41 µM (inactive) with A549. Moreover, the GI50 with CCRF-CEM was 9.53 µM (inactive); with UO-31, > 100 µM (inactive); in the assay with SW-620, 33.3 µM (inactive).

On to `C/C=C1/CC(C(=O)OC)N(C(=O)OCc2ccccc2)C1=S` (stereo not given), for which the GI50 in the assay with OVCAR-5, in the assay on PC-3, in the assay on U-251, with SNB-19, in the assay with ACHN and with UACC-257 was > 100 µM (inactive) each time. Also, the GI50 in the assay on SK-OV-3, with IGROV-1, with RPMI-8226, in the assay on A498, in the assay on CAKI-1 and in the assay on A549 was > 100 µM (inactive) throughout. Further, the GI50 in the assay on SNB-75, in the assay with UO-31 and in the assay on SW-620 was > 100 µM (inactive) each time.

`CN(C)CCCSc1nc2ccccc2[nH]1`: the GI50 with SN12C, in the assay on OVCAR-5, with U-251, in the assay with SNB-19, with ACHN and in the assay with UACC-257 was > 100 µM (inactive) each time. Besides, the GI50 in the assay on SK-OV-3, with NCI-H226, in the assay on SR, in the assay with IGROV-1, in the assay on RPMI-8226 and in the assay with A498 was > 100 µM (inactive) in each case. For the same molecule, the GI50 with CAKI-1, in the assay with A549, in the assay on SNB-75, in the assay on UO-31 and in the assay on SW-620 was > 100 µM (inactive) in each case.

Turning to `COc1ccc(C2SC(=N)Nc3c2c(C)nn3C(=O)c2ccc(Cl)cc2)cc1` (stereo not given), the GI50 with SN12C, in the assay with OVCAR-5, with PC-3, with U-251, in the assay on SNB-19 and in the assay with ACHN was > 10 µM (inactive) throughout. Also, the GI50 with UACC-257, in the assay on SK-OV-3, in the assay with NCI-H226, in the assay with IGROV-1, in the assay with RPMI-8226 and in the assay with CAKI-1 was > 10 µM (inactive) in each case. The GI50 in the assay on A549, in the assay on CCRF-CEM, in the assay with SNB-75 and in the assay on SW-620 was > 10 µM (inactive) throughout.

Regarding `CN(C)c1ccc([S+]([O-])Nc2ccccc2)cc1` (stereo not given), the GI50 in the assay with SN12C is > 100 µM (inactive); with OVCAR-5 it was > 100 µM (inactive); with U-251, 19.3 µM (inactive); in the assay on SNB-19, 60.1 µM (inactive); in the assay with ACHN it was 29.6 µM (inactive); in the assay with UACC-257 it was 27.3 µM (inactive). Also, the GI50 is 38.4 µM (inactive) with NCI-H226; 31.6 µM (inactive) in the assay on SR; 30 µM (inactive) in the assay on IGROV-1; 27.5 µM (inactive) in the assay on RPMI-8226; 39 µM (inactive) in the assay with A549; > 100 µM (inactive) with CCRF-CEM. For the same molecule, the GI50 in the assay with UO-31 is 11.1 µM (inactive); in the assay on SW-620, 51.2 µM (inactive).

For `Sc1nnc(/C=C/c2ccc(Cl)c(Cl)c2)[nH]1`, the GI50 is > 100 µM (inactive) with SN12C; > 100 µM (inactive) in the assay with OVCAR-5; 58.5 µM (inactive) in the assay on U-251; > 100 µM (inactive) with SNB-19; > 100 µM (inactive) with ACHN; > 100 µM (inactive) in the assay on UACC-257. Also, the GI50 was 0.0173 µM (active) in the assay with SK-OV-3; > 100 µM (inactive) with NCI-H226; > 100 µM (inactive) in the assay on IGROV-1; 53.8 µM (inactive) with A498; > 100 µM (inactive) in the assay with A549; > 100 µM (inactive) in the assay on CCRF-CEM. Besides, the figures for the GI50 with UO-31 and in the assay with SW-620 were 71.3 µM (inactive) and > 100 µM (inactive), respectively.

For the molecule `COc1cc2c3c(n(C)c(=O)c2cc1OC)-c1cc2c(cc1/C3=C\CCCCl)OCO2`, the GI50 in the assay with OVCAR-5 was > 100 µM (inactive); with PC-3, > 100 µM (inactive); with U-251 it was 25.2 µM (inactive); in the assay on SNB-19 it was 44.9 µM (inactive); with ACHN it was 29.7 µM (inactive); in the assay on UACC-257, 36.9 µM (inactive). Besides, the GI50 with SK-OV-3 is 23 µM (inactive); in the assay with IGROV-1, 25.4 µM (inactive); in the assay with A498, 25.3 µM (inactive); with CAKI-1, 25.9 µM (inactive); in the assay on A549, > 100 µM (inactive); in the assay with CCRF-CEM, 8.95 µM (inactive). The results for the GI50 in the assay with SNB-75, in the assay on UO-31 and in the assay on SW-620 were 11.9 µM (inactive), 53.8 µM (inactive) and > 100 µM (inactive), respectively.

Regarding `O=c1[nH]c(=O)n(COCc2ccccc2)c2ccc(Br)cc12`, the GI50 in the assay on SN12C was > 100 µM (inactive); with OVCAR-5, > 100 µM (inactive); in the assay on U-251 it was > 100 µM (inactive); in the assay on SNB-19, 64.3 µM (inactive); with ACHN, 27.5 µM (inactive); in the assay with UACC-257, > 100 µM (inactive). In addition, the GI50 in the assay on SK-OV-3 is > 100 µM (inactive); in the assay with NCI-H226, 36.3 µM (inactive); in the assay with SR, > 100 µM (inactive); in the assay on IGROV-1 it was > 100 µM (inactive); in the assay with A498, > 100 µM (inactive); in the assay on CAKI-1, > 100 µM (inactive). The GI50 with A549 was > 100 µM (inactive); in the assay with CCRF-CEM it was > 100 µM (inactive); in the assay with SNB-75, 43.4 µM (inactive); with UO-31, > 100 µM (inactive); with SW-620, > 100 µM (inactive).

For `Cc1ccccc1NC(=O)C(=O)C(C#N)c1ccc(Cl)cc1` (stereo not given), the GI50 in the assay with SN12C is 44.9 µM (inactive); with OVCAR-5, 54 µM (inactive); in the assay with U-251, 51.1 µM (inactive); in the assay on SNB-19, 63.2 µM (inactive); with ACHN, 74.1 µM (inactive); in the assay with UACC-257, > 100 µM (inactive). Moreover, the GI50 is > 100 µM (inactive) with SK-OV-3; 78.5 µM (inactive) in the assay on NCI-H226; 63.7 µM (inactive) with IGROV-1; 22.6 µM (inactive) with RPMI-8226; > 100 µM (inactive) with A498; > 100 µM (inactive) in the assay with CAKI-1. Moreover, the GI50 was 95.5 µM (inactive) in the assay with A549; 64 µM (inactive) with CCRF-CEM; > 100 µM (inactive) in the assay on SNB-75; 57.7 µM (inactive) with UO-31; 15.4 µM (inactive) in the assay on SW-620.

The values above are taken from ChEMBL document CHEMBL1201862, “PubChem BioAssay data set” (2004).
